One test concerns the target T1, BChE (Equus caballus, UniProt P81908).
T1 construct: BChE from equine serum; purchased Sigma-Aldrich; host or cells: equine serum
Description: BChE inhibition (Ellman method). Format: biochemical, equine. Particulars: read-out: Residual Activity at 10 µM (%) BChE. The protocol: (§1) All other chemicals were of reagent grade.
(§2) hMAO-A and -B activities were determined using a continuous spectrophotometric method, as described previously. […] AChE and BChE activities were assayed as described by Ellman et al., with slight modification. Reactions were performed using AChE and BChE in the 0.5 mL reaction mixtures including 0.5 mM substrate (ATCI and BTCI, respectively) and color reagent (DTNB). […] Reaction rates are expressed as changes in absorbance per min.. Inhibitory activities of AChE and BChE were measured after preincubating enzyme with inhibitors for 15 min before adding DTNB and each substrate. […]
Background: DTNB colorimetry detects thiols as they appear.

The target in test [1] is T2, hMAO-B (Homo sapiens, UniProt P27338).
T2 construct: purchased Sigma-Aldrich
T2 sequence (P27338 1-520): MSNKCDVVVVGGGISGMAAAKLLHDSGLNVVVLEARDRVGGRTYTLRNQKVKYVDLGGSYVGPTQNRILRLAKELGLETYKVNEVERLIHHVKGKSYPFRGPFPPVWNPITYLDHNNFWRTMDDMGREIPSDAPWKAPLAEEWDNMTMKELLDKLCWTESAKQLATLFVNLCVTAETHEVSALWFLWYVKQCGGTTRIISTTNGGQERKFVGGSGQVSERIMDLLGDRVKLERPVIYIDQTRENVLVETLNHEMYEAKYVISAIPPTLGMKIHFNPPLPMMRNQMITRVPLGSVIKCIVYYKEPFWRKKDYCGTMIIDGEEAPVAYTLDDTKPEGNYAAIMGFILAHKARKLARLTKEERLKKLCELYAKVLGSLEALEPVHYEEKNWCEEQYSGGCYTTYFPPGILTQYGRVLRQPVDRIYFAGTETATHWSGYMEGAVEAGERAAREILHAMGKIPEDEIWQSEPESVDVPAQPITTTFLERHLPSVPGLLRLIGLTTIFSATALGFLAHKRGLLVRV
The test can be described thus: biochemical. It is filed as biochemical. The following applies: for remaining activity at 10 µM: read-out: Residual Activity at 10 µM (%) hMAO-B; for SI: hMAO-B selectivity: IC50 of hMAO-A divided by IC50 of hMAO-B. The protocol:
as §1, §2

A further test concerns the target T3, AChE (Electrophorus electricus, UniProt O42275).
T3 construct: purchased Sigma-Aldrich
Description: AChE inhibition (Ellman method). It is filed as biochemical. Particulars: read-out: Residual Activity at 10 µM (%) AChE. The protocol:
as §1, §2

A further test has as its target T4, hMAO-A (Homo sapiens, UniProt P21397).
T4 construct: purchased Sigma-Aldrich
T4 sequence (P21397 1-527): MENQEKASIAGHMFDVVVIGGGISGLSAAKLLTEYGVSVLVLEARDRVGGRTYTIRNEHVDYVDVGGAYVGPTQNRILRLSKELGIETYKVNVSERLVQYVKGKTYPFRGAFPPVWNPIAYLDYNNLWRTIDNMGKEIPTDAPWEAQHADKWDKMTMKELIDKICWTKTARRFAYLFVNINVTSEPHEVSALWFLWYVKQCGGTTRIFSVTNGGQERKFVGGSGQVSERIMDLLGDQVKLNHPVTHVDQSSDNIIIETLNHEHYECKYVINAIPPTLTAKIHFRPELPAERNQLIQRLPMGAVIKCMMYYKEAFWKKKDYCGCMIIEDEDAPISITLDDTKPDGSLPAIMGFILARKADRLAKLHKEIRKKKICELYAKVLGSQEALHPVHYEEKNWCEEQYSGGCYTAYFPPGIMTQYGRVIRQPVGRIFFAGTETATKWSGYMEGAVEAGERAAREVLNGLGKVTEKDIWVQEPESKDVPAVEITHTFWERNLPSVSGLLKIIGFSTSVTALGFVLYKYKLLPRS
Description: biochemical. The following applies: for remaining activity at 10 µM: read-out: Residual Activity at 10 µM (%) hMAO-A. The protocol:
as §1
hMAO-A and -B activities were determined using a continuous spectrophotometric method, as described previously. […] AChE and BChE activities were assayed as described by Ellman et al., with slight modification. Reactions were performed using AChE and BChE in the 0.5 mL reaction mixtures including 0.5 mM substrate (ATCI and BTCI, respectively) and color reagent (DTNB). […] Reaction rates are expressed as changes in absorbance per min.. Inhibitory activities of AChE and BChE were measured after preincubating enzyme with inhibitors for 15 min before adding DTNB and each substrate.
Inhibitory types and Ki values were determined using Lineweaver-Burk plots and secondary plots of their slopes, respectively.

The next test deals with T5, BACE1 (Homo sapiens, UniProt P56817).
T5 construct: purchased Sigma-Aldrich
The test can be described thus: BACE1 inhibition (fluorescent activity detection kit). Format: biochemical. The following applies: read-out: Residual Activity at 10 µM (%) BACE1.

The target in test [2] is T2, hMAO-B. Particulars: read-out: hMAO-B inhibitory activity; cited from earlier work.

Read-outs that look alike come from different tables or passages of the source.

T5 sequence (P56817 46-501): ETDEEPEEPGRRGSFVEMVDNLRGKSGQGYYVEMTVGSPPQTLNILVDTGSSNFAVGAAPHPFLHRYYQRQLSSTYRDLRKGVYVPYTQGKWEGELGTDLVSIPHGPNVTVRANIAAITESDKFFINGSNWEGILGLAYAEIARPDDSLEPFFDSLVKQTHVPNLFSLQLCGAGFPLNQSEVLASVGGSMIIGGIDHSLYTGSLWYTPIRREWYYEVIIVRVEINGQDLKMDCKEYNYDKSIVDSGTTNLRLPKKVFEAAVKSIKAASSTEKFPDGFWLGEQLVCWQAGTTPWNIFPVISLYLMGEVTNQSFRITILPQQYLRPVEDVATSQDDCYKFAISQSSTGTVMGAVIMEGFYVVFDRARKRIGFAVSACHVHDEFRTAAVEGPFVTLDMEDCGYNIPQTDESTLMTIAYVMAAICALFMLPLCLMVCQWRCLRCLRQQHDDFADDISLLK
T3 sequence (O42275 24-633): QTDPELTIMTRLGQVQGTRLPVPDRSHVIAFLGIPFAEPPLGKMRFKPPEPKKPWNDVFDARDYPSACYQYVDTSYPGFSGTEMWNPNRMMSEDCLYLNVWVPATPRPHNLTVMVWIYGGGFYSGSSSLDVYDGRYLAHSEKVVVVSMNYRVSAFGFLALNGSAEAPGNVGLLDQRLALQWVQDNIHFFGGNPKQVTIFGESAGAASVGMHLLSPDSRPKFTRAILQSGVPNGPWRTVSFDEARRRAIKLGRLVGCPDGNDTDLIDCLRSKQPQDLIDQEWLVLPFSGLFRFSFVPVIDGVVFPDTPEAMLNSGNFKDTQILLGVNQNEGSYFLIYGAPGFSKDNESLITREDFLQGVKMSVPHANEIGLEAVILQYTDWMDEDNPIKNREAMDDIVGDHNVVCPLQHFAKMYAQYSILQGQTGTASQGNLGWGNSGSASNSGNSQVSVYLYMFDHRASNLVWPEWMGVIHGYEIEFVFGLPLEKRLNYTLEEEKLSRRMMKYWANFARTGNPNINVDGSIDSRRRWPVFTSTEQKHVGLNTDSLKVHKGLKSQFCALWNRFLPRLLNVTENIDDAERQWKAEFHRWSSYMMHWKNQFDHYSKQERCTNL
T1 sequence (P81908 whole entry): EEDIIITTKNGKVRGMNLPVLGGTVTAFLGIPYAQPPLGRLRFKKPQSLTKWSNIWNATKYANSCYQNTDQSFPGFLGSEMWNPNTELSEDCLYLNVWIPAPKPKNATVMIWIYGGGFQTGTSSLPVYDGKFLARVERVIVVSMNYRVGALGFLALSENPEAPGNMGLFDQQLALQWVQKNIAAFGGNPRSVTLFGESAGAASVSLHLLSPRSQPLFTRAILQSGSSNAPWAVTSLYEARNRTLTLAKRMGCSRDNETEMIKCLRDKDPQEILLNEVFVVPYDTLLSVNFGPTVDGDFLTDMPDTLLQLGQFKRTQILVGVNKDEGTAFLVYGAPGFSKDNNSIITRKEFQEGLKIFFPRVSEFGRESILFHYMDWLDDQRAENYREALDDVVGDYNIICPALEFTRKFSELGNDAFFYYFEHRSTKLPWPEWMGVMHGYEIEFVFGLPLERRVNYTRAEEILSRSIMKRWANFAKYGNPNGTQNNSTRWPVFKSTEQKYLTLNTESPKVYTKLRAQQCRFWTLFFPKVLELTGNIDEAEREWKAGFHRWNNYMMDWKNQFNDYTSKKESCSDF

Turning to `C[C@@H]1O[C@@H](OC[C@H]2O[C@@H](Oc3c(-c4ccc(O)c(O)c4)oc4cc(O)cc(O)c4c3=O)[C@H](O)[C@@H](O)[C@@H]2O)[C@H](O)[C@H](O)[C@H]1O` [Compound 1, rutin], the remaining activity at 10 µM on BChE was determined as 99.2 ± 0.88%; on hMAO-B [1] it was 75.2 ± 6.76%; at AChE it was 92.4 ± 7.16%; at hMAO-A it was 96.8 ± 1.52%; at BACE1, 82.6 ± 3.77%. Further, the IC50 against hMAO-B [1] and at hMAO-A was more than 40 µM in each case.
Consider `COc1cc2c(cc1O[C@@H]1O[C@H](CO)[C@@H](O)[C@H](O)[C@H]1O)O[C@H](c1ccccc1)[C@@H](O)C2=O` [Compound 2, (2R,3R)-3-hydroxy-7-O-β-D-glucopyranoside-6-methoxyflavanone], for which the remaining activity at 10 µM came out at 97.5 ± 0.42% on BChE; 69.6 ± 2.46% at hMAO-B [1]; 84.8% on AChE; 98.3 ± 2.01% at hMAO-A; 164 ± 2.96% at BACE1. In addition, the IC50 at hMAO-B [1] and at hMAO-A was more than 40 µM in each case.
On to `COc1cc([C@H]2OC[C@H]3[C@@H]2CO[C@@H]3c2cc(OC)c(O[C@@H]3O[C@H](CO)[C@@H](O)[C@H](O)[C@H]3O)c(OC)c2)cc(OC)c1O` [Compound 3, (–)-syringaresinol-4-O-β-D-glucopyranoside], for which the remaining activity at 10 µM at BChE came to 98.9 ± 1.54%; at hMAO-B [1] it was 93.6 ± 3.47%; on AChE, 95.22 ± 0.08%; at hMAO-A, 80 ± 2.02%; at BACE1, 76.7 ± 4.92%. Also, the IC50 on hMAO-B [1] and at hMAO-A was more than 40 µM each time.
With `COc1ccc(-c2coc3cc(O[C@@H]4O[C@H](CO)[C@@H](O)[C@H](O)[C@H]4O)ccc3c2=O)cc1` [Compound 4, ononin], the remaining activity at 10 µM turned out to be 96.7 ± 1.68% at BChE; 63.5 ± 1.23% on hMAO-B [1]; 86.1 ± 1.79% on AChE; 98.3 ± 1.64% on hMAO-A; 85.9 ± 0.08% on BACE1. For the same molecule, the figures for the IC50 against hMAO-B [1] and on hMAO-A were 28.5 ± 1.55 µM and more than 40 µM, respectively. Also, at hMAO-B [1], the SI is reported as more than 1.40.
As to `COc1cc([C@H]2OC[C@H]3[C@@H]2CO[C@@H]3c2cc(OC)c(O)c(OC)c2)cc(OC)c1O` [Compound 5, (+)-syringaresinol], the IC50 against hMAO-B [1] is 24.3 ± 2.2 µM; against hMAO-A it was more than 40 µM. Further, the remaining activity at 10 µM at hMAO-B [1] came to 63.2 ± 6.24%; on hMAO-A, 80.4 ± 6.57%; at BACE1, 81.7 ± 4.01%.
As to `COc1cc2c(cc1O)O[C@H](c1ccccc1)[C@@H](O)C2=O` [Compound 6, (2R,3R)-3,7-dihydroxy-6-methoxyflavanone], the remaining activity at 10 µM at BChE turned out to be 91.8 ± 1.35%; on hMAO-B [1] it was 94.6 ± 4.21%; at AChE, 84.3 ± 1.31%; at hMAO-A, 94.8 ± 1.9%; at BACE1 it was 95.72 ± 0.86%. The IC50 against hMAO-B [1] and at hMAO-A was more than 40 µM each time.
As to `COc1cc(O)c2c(=O)c(-c3ccc(O)cc3O)coc2c1` [Compound 7, cajanin], the remaining activity at 10 µM was 86.9 ± 2.11% on BChE; 31.6 ± 4.21% on hMAO-B [1]; 70.8 ± 7.2% at AChE; 56.9 ± 0.92% on hMAO-A; 83.25 ± 0.45% on BACE1. Besides, the IC50 on hMAO-B [1] was 5.18 ± 0.11 µM; at hMAO-A, 13.1 ± 0.23 µM. At hMAO-B [1], this molecule displayed an SI of 2.53.
For the molecule `COc1cc(O)c2c(=O)c(-c3ccc(O)cc3)coc2c1` [Compound 9, prunetin], the remaining activity at 10 µM on BChE came to 93 ± 0.65%; at hMAO-B [1], 30.8 ± 0.82%; on AChE it was 83.2 ± 4.76%; at hMAO-A, 24.8 ± 1.22%; on BACE1, 87.73 ± 0.59%. For the same molecule, the figures for the IC50 against hMAO-B [1] and against hMAO-A were 5.18 ± 0.059 µM and 2.49 ± 0.32 µM, respectively. At hMAO-B [1], this molecule showed an SI of 0.48.
For the molecule `COc1cc(O)c2c(=O)c(-c3ccc(OC)c(O)c3)coc2c1` [Compound 10, 7,4′-dimethyl-3′-hydroxygenistein], the remaining activity at 10 µM was 98.1 ± 1.98% on BChE; 16.9 ± 2.47% at hMAO-B [1]; 78.4 ± 3.4% at AChE; 41 ± 1.09% on hMAO-A; 78.86 ± 0.56% at BACE1. Moreover, the IC50 against hMAO-B [1] was determined as 3.47 ± 0.055 µM; at hMAO-A, 8.05 ± 0.1 µM. On hMAO-B [1], this molecule came in with an SI of 2.32.
As to `COc1ccc(-c2coc3cc(OC)ccc3c2=O)cc1` [Compound 11, 7,4′-dimethoxyisoflavone], the remaining activity at 10 µM was 98.7 ± 0.66% at BChE; 62 ± 1.09% at hMAO-B [1]; 82.7 ± 5.44% at AChE; 49.1 ± 2.25% on hMAO-A; 91.96 ± 0.59% at BACE1. The IC50 against hMAO-B [1] amounted to 13.7 ± 0.1 µM; at hMAO-A, 9.8 ± 0.27 µM. At hMAO-B [1], this molecule yielded an SI of 0.72.
With `COc1ccc2c(c1)OC[C@H]1c3cc4c(cc3O[C@@H]21)OCO4` [Compound 12, 3-methoxy-8,9-methylenedioxypterocarpan], the remaining activity at 10 µM was found to be 93.6 ± 2.11% at BChE; 13 ± 0.72% at hMAO-B [1]; 84.9 ± 0.61% on AChE; 60.3 ± 0.9% on hMAO-A; 102.4 ± 0.4% at BACE1. In addition, the IC50 came to 3.36 ± 0.09 µM against hMAO-B [1] and 12.5 ± 0.33 µM on hMAO-A. On hMAO-B [1], this molecule had an SI of 3.72. Moreover, at hMAO-B [1] (ratio of IC50 values versus compound 8), the “times lower MAO-B inhibition than compound 8” value was 7.47 times.
With `COc1ccc(-c2cc(=O)c3c(O)cc(OC)cc3o2)cc1` [acacetin 7-methyl ether], the IC50 on hMAO-B [2] is 0.2 µM.
For `COc1ccc(-c2coc3cc(O)ccc3c2=O)cc1O` [calycosin], the IC50 on hMAO-B [2] is 0.24 µM.

The values above are taken from PMC9822396 (Molecules, 2022).
